The values below come from ChEMBL document CHEMBL2331232, “Α-mangostin and gambogic acid as potential inhibitors of the p53-MDM2 interaction revealed by a yeast approach” (J Nat Prod, 2013).

Active and inactive are the calls of the source. No cut-off for these calls is given here.

Assay [1] concerns the target E3 ubiquitin-protein ligase Mdm2 (Homo sapiens) (UniProt Q00987). In words: Inhibition of human MDM2 expressed in Saccharomyces cerevisiae CG379 assessed as effect on cell cycle arrest at 1 to 100 uM after 42 hrs.
Assay [2] deals with Cellular tumor antigen p53 (Homo sapiens) (UniProt P04637). Kind of assay: Inhibition of human p53 expressed in Saccharomyces cerevisiae CG379 assessed as effect on cell growth at 1 to 100 uM after 42 hrs.
The subject of assay [3] is Cellular tumor antigen p53 (Homo sapiens), P04637 [R280K]. Kind of assay: Inhibition of human p53 R280K mutant expressed in Saccharomyces cerevisiae CG379 assessed as effect on cell growth at 10 uM after 31 hrs.
In assay [4] the target is Cellular tumor antigen p53 (Homo sapiens) (UniProt P04637). In words: Inhibition of human p53 expressed in Saccharomyces cerevisiae CG379 assessed as effect on cell cycle arrest at 1 to 100 uM after 42 hrs.

Cellular tumor antigen p53 (Homo sapiens), sequence (P04637 whole entry, looked up): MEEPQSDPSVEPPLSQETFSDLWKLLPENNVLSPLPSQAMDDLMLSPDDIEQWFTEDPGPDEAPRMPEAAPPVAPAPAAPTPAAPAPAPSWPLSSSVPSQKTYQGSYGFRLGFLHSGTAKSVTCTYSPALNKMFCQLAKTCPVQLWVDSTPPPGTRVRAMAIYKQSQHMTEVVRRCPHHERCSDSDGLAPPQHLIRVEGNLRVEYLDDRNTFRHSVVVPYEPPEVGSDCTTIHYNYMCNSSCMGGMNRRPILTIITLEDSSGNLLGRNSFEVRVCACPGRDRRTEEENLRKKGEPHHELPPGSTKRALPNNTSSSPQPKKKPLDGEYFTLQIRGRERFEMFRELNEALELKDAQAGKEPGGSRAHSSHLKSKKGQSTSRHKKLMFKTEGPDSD
E3 ubiquitin-protein ligase Mdm2 (Homo sapiens), sequence (Q00987 whole entry, looked up): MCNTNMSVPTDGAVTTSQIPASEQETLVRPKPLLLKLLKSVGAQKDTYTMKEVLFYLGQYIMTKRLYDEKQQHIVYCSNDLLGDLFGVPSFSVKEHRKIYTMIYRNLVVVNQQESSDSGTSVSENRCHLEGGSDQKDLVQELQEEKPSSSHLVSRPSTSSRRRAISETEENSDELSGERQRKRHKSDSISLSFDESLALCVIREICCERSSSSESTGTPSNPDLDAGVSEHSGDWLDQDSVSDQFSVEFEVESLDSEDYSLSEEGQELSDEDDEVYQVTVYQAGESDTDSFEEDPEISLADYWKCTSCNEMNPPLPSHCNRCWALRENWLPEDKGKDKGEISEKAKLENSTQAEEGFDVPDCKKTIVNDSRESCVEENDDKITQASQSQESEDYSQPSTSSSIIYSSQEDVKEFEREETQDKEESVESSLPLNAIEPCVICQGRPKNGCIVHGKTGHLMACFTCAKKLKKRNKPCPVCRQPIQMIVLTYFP

`COc1c(O)cc2oc3cc(O)c(CC=C(C)C)c(O)c3c(=O)c2c1CC=C(C)C`: the inhibition entry in assay [1], in assay [2], in assay [3] and in assay [4] was “inactive” throughout.
Turning to `CC(C)=CCC[C@]1(C)C=Cc2c(O)c3c(c(CC=C(C)C)c2O1)O[C@]12C(=C[C@@H]4C[C@H]1C(C)(C)O[C@@]2(C/C=C(/C)C(=O)O)C4=O)C3=O`, the inhibition result in assay [1] was “Active”. For the same compound, the inhibition result in assay [2], in assay [3] and in assay [4] was “inactive” in each case.
